Experimental data published in PubChem BioAssay (NCI).
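All cell lines were grown in 96-well plates and treated with compound for 48 hours. GI50 marks 50% less growth. At the TGI there is no net growth.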

Tests used:
Assay in all cases: growth of human tumour cells (NCI), 48 h
[1] = tested on: OVCAR-8 ovarian
[2] = tested on: RPMI-8226 leukemia
[3] = tested on: OVCAR-4 ovarian
[4] = tested on: HOP-92 NSCLC
[5] = tested on: ACHN renal
[6] = tested on: EKVX NSCLC
[7] = tested on: NCI-H460 lung
[8] = tested on: SK-MEL-28 melanoma
[9] = tested on: UACC-257 melanoma
[10] = tested on: DU-145 prostate
[11] = tested on: MOLT-4 leukemia
[12] = tested on: KM12 colon
[13] = tested on: HL-60(TB) leukemia
[14] = tested on: MCF7 breast
[15] = tested on: HS 578T breast
[16] = tested on: NCI-H23 lung
[17] = tested on: HT29 colon
[18] = tested on: SNB-75 CNS
[19] = tested on: CCRF-CEM leukemia
[20] = tested on: SNB-19 CNS
[21] = tested on: U251 CNS
[22] = tested on: SF-539 CNS
[23] = tested on: MALME-3M melanoma
[24] = tested on: UO-31 renal
[25] = tested on: NCI-H226 lung
[26] = tested on: SK-MEL-2 melanoma
[27] = tested on: UACC-62 melanoma
[28] = tested on: K-562 leukemia
[29] = tested on: IGROV1 ovarian
[30] = tested on: SW-620 colon
[31] = tested on: NCI/ADR-RES ovarian
[32] = tested on: SK-MEL-5 melanoma
[33] = tested on: M14 melanoma
[34] = tested on: 786-0 renal
[35] = tested on: NCI-H522 lung
[36] = tested on: LOX IMVI melanoma
[37] = tested on: TK-10 renal
[38] = tested on: SF-268 CNS
[39] = tested on: RXF 393 renal
[40] = tested on: BT-549 breast
[41] = tested on: OVCAR-5 ovarian
[42] = tested on: HCC-2998 colon
[43] = tested on: SK-OV-3 ovarian
[44] = tested on: SF-295 CNS
[45] = tested on: HCT-116 colon
[46] = tested on: T-47D breast
[47] = tested on: A549 NSCLC
[48] = tested on: MDA-MB-231 breast
[49] = tested on: SN12C renal
[50] = tested on: HCT-15 colon
[51] = tested on: PC-3 prostate
[52] = tested on: COLO 205 colon
[53] = tested on: SR leukemia
[54] = tested on: CAKI-1 renal
[55] = tested on: MDA-MB-435
[56] = tested on: A498 renal
[57] = tested on: HOP-62 NSCLC

## O=C(CCCCCCN1CC(=O)N2[C@@H](c3cccc(Br)c3)c3[nH]c4ccccc4c3C[C@H]2C1=O)NO
[1]
  GI50: 2.32 µM
  TGI: > 16.7 µM
[2]
  GI50: 0.982 µM
  TGI: 11.6 µM
[3]
  GI50: 3.17 µM
  TGI: > 16.7 µM
[4]
  GI50: 1.84 µM
  TGI: 5.78 µM
[5]
  GI50: 3.85 µM
  TGI: 14.9 µM
[6]
  GI50: 4.33 µM
  TGI: > 16.7 µM
[7]
  GI50: 2.43 µM
  TGI: 11.5 µM
[8]
  GI50: 2.51 µM
  TGI: 10.5 µM
[9]
  GI50: 2.37 µM
  TGI: > 16.7 µM
[10]
  GI50: 3.13 µM
  TGI: 12.3 µM
[11]
  GI50: 0.933 µM
  TGI: 10.4 µM
[12]
  GI50: 2.95 µM
  TGI: 6.65 µM
[13]
  GI50: 1.2 µM
  TGI: 6.29 µM
[14]
  GI50: 1.88 µM
  TGI: 7.19 µM
[15]
  GI50: 2.25 µM
  TGI: 12.1 µM
[16]
  GI50: 3.08 µM
  TGI: 9.78 µM
[17]
  GI50: 2.23 µM
  TGI: > 16.7 µM
[18]
  GI50: 0.707 µM
  TGI: 9.15 µM
[19]
  GI50: 0.709 µM
  TGI: > 16.7 µM
[20]
  GI50: 3.79 µM
  TGI: > 16.7 µM
[21]
  GI50: 2.78 µM
  TGI: 10.7 µM
[22]
  GI50: 2.89 µM
  TGI: 10.5 µM
[23]
  GI50: 0.922 µM
  TGI: 7.45 µM
[24]
  GI50: 3.3 µM
  TGI: > 16.7 µM
[25]
  GI50: 5.01 µM
  TGI: > 16.7 µM
[26]
  GI50: 2.77 µM
  TGI: 12.7 µM
[27]
  GI50: 1.78 µM
  TGI: 5.38 µM
[28]
  GI50: 1.37 µM
  TGI: > 16.7 µM
[29]
  GI50: 0.403 µM
  TGI: 1.11 µM
[30]
  GI50: 2.24 µM
  TGI: 14.7 µM
[31]
  GI50: > 16.7 µM
  TGI: > 16.7 µM
[32]
  GI50: 2.6 µM
  TGI: 9.06 µM
[33]
  GI50: 2.81 µM
  TGI: 14.3 µM
[34]
  GI50: 3.86 µM
  TGI: 11.1 µM
[35]
  GI50: 0.8 µM
  TGI: 5.77 µM
[36]
  GI50: 0.203 µM
  TGI: 0.431 µM
[37]
  GI50: 2.98 µM
  TGI: 15.1 µM
[38]
  GI50: 3.44 µM
  TGI: 9.8 µM
[39]
  GI50: 1.51 µM
  TGI: 5.21 µM
[40]
  GI50: 3.81 µM
  TGI: 16.1 µM
[41]
  GI50: 3.37 µM
  TGI: > 16.7 µM
[42]
  GI50: 2.66 µM
  TGI: 5.81 µM
[43]
  GI50: 3.23 µM
  TGI: 9.27 µM
[44]
  GI50: 2.57 µM
  TGI: 6.58 µM
[45]
  GI50: 1.05 µM
  TGI: 6.46 µM
[46]
  GI50: 1.65 µM
  TGI: 12.8 µM
[47]
  GI50: 4.83 µM
  TGI: > 16.7 µM
[48]
  GI50: 3.25 µM
  TGI: 11.5 µM
[49]
  GI50: 3.9 µM
  TGI: > 16.7 µM
[50]
  GI50: 13 µM
  TGI: > 16.7 µM
[51]
  GI50: 2.23 µM
  TGI: > 16.7 µM
[52]
  GI50: 2.28 µM
  TGI: 8.36 µM
[53]
  GI50: 0.554 µM
  TGI: 8.71 µM
[54]
  GI50: 2.6 µM
  TGI: 15 µM
[55]
  GI50: 2.27 µM
  TGI: 7.29 µM
[56]
  GI50: 2.75 µM
  TGI: 6.31 µM
[57]
  GI50: 2.51 µM
  TGI: 7.59 µM
